Reference: patent publication US20220267288A1, “CARDIAC THERAPEUTIC” (priority 2019, published 2022)
“Also recorded” adds a separate entry of the source.

How the values were obtained:
[1] = system: hiPSC-CM; assay: Beat-to-beat variability (BBV), Poincaré plots; type: cell-based, human; conditions: 10 nM
Text: The BBV calculations were done using Kubios HRV2.2 (Department of Applied Physics, University of Eastern Finland, Kuopio, Finland)^4. BBV is visualised as scatterplots known as Poincaré plots. In these plots, each time interval between two successive beats [inter-beat interval (RRn)] is plotted against the subsequent interval (RRn+1). Poincaré plot descriptors SD1 and SD2 define the extent of variability. SD1 represents a measure for short-term variability, whereas SD2 describes long-term variability^5.

[2] = In vivo pharmacokinetic studies in dogs; conditions: for acute toxicity and fatality in vivo: PK study
Experimental: All experiments were approved by the Animal Research Committee for Animal Experimentation of Toho University (No. 12-52-151) and performed in accordance with the Guidelines for the Care and Use of Laboratory Animals of Toho University. […] Plasma samples were stored at −80° C. and thawed in ice before use.
Ice cold NDEA internal standard (IS) solution was used for protein precipitation at a plasma:IS ratio of 1:3. The mixture was vortex-mixed for 1 min, followed by centrifugation at 14,000 g at 4° C. for 15 min. The supernatant was then transferred into a vial for LC/MS/MS analysis.
The LC/MS/MS system consisted of Infinity ultra-high-pressure liquid chromatography (UHPLC) system (Agilent Technologies Inc., Santa Clara, Calif.) with the AB SCIEX QTRAP® 5500 tandem mass spectrometry (MS/MS) system (AB SCIEX, Framingham, Mass.). MultiQuant software version 1.4.0.18067 (Applied Biosystems) was used to perform all chromatographic peak integration.
Chromatographic separation was performed using ACQUITY UPLC BEH C18 column, 1.7 μm, 2.1×50 mm (Waters, Milford, Mass.), with a gradient elution programme. The mobile phases were 0.2% acetic acid in 5 mM ammonium acetate in water (A) and 0.2% acetic acid in ACN (B). The elution conditions were linear gradient 30-95% B (0-1.60 min), isocratic at 95% B (1.61-1.99 min), and isocratic at 30% B (2.00-2.50 min). Multiple reaction monitoring (MRM) transitions were optimized for NDEA (internal standard, IS), dronedarone and poyendarone.
Individual pharmacokinetic parameters were estimated using NCA for IV bolus data (Model 201), using WinNonlin® (Pharsight, USA). […] Data points included in the calculation of Lambda Z (Az) were first determined by WinNonlin®, and then visually assessed and modified accordingly. Other parameters calculated include apparent total plasma clearance (CL), apparent volume of distribution based on terminal phase (Vz), apparent elimination half-life (T1/2), apparent volume at steady state (Vss), mean residence time (MRT) and MRT extrapolated to infinity (MRTinf). […]

[3] = target: T1, CYP3A5 (Homo sapiens, UniProt P20815); assay: Time- and concentration-dependent inactivation of CYP3A5, rivaroxaban probe; type: in vitro ADME; conditions: recombinant CYP3A5, pH 7.4, probe rivaroxaban (50 μM), in vitro data obtained, read-out: Mechanism-based inactivation KI CYP3A5
T1 construct: purchased BD Gentest (Woburn, Mass.)
Experimental: Incubations were conducted in triplicates in 96-well plates. Primary incubation mixtures comprising various concentrations of inhibitor (0-20 μM) were pre-incubated at 37° C. for 3 min with CYP3A4 or CYP3A5 (20 pmol/mL) and NADPH B in potassium phosphate buffer (100 mM, pH 7.4). To initiate the enzymatic reaction, 5 μL NADPH A was added to the primary incubation. The final primary incubation mixture volume was 100 μL and contained <1% v/v organic solvent. At different pre-incubation time points (3, 8, 15, 22, 30, and 45 min) after the addition of NADPH A, 5 μL aliquots of the primary incubation were transferred to 95 μL of the secondary incubation containing 50 μM rivaroxaban, the NADPH A and B, and potassium phosphate buffer (100 mM, pH 7.4) to yield a 20-fold dilution. The secondary incubation mixtures were incubated at 37° C. for 2 h with CYP3A4 or CYP3A5 before 80 μL aliquots were removed and quenched with an equal volume of ice-cold ACN containing 4 μM dexamethasone as IS. The samples were then centrifuged at 3220 g at 4° C. for 30 min before transferring the supernatant to a 96-well plate for liquid chromatography-tandem mass spectrometry (LC-MS/MS) analysis. The main rivaroxaban metabolite, morpholinone hydroxylated metabolite, was quantified using LC-MS/MS analysis. […]

[4] = target: T2, CYP2J2 (Homo sapiens, UniProt P51589); design: endogenous in cells; host or cells: hiPSC-CM (from human foreskin fibroblasts); conditions: PBPK parameter; read-out: Reversible inhibition Ki CYP2J2; cited from earlier work
T2 sequence (P51589 1-502): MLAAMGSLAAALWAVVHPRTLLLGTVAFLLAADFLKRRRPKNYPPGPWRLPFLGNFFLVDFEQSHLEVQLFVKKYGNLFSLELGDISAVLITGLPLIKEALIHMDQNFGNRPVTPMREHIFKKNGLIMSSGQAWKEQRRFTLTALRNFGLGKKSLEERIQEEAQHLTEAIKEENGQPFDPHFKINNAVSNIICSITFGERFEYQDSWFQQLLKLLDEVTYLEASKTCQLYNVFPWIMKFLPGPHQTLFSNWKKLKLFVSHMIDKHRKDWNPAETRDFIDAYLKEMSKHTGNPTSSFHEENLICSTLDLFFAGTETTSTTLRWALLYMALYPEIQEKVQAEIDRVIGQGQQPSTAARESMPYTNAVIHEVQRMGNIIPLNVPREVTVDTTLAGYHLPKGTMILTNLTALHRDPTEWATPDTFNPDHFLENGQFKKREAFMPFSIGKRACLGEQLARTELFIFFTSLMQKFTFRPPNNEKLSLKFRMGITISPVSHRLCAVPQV

T1 sequence (P20815 whole entry): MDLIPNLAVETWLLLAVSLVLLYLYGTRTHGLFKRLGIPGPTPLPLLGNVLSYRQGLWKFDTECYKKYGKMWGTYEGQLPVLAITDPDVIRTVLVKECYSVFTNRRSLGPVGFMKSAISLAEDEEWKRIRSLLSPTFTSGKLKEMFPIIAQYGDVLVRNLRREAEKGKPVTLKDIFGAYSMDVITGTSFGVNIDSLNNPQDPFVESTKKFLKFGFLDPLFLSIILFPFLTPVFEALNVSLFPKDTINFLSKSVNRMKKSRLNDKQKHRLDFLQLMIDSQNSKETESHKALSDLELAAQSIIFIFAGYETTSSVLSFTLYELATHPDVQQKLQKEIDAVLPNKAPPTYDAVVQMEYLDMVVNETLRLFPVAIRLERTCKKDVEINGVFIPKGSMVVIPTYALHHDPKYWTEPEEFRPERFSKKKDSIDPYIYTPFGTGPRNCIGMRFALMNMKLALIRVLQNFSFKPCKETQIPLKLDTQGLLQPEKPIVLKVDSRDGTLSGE

| Compound | beat-to-beat variability (BBV), inter-beat intervals in Poincaré plot [1] | acute toxicity and fatality in vivo [2] | KI (inactivation) [3] | Ki [4] | plasma disposition profile, clearance and volume of distribution compared between poyendarone and dronedarone ([2]; 3.0 mg/kg IV bolus, 3 mg/kg) |
| --- | --- | --- | --- | --- | --- |
| CCCCc1oc2ccc(NS(C)(=O)=O)cc2c1C(=O)c1ccc(OCCCN(CCCC)CCCC)cc1.Cl [Dronedarone] | do not cluster at the centroid of the ellipse and diffuse across the plot | No acute toxicity nor fatality | 5370 nM | 930 nM |  |
| Cl.[2H]c1c(NS(C)(=O)=O)c([2H])c2c(C(=O)c3ccc(OCCCN(CCCC)CCCC)cc3)c(CCCC)oc2c1[2H] [Poyendarone, Methanesulfonamide, N-(2-butyl-3-(4-(3-(dibutylamino)propoxy)benzoyl)-1-benzo(4,6,7-d3)-furan-5-yl)hydrochloride] | least variability among the beats; also recorded: lack of beat-to-beat variability (BBV) | No acute toxicity nor fatality | 2910 nM | 930 nM | comparable |
